Results taken from patent US7612250B2, “Nuclear transfer embryo formation method” (Trustees of Tufts College, priority 2002, dated 2009).

Assays:
[1] = system: bovine oocytes / NT embryos; test: In vitro development (7 days) of bovine NT embryos / parthenotes prepared with demecolcine; format: cell-based; settings: for cleavage rate / morula/blastocyst rate: 7 days culture
Description: Progress has continued with experiments designed to compare in vitro development of control embryos (parthenotes) with that of reconstructed NT embryos prepared by conventional NT, telophase NT, IE and a novel simultaneous IE-NT paradigm (SIE/NT; see Table 1 below). As in all previous experiments, abattoir-sourced oocytes were obtained having been submitted to 26 h of maturation in ACM medi a @5%CO2 in air. Oocytes were denuded (enzyme/vortex) and activated (5 μM ionomyciin for 5 min, +/−CHX). See Example 2 for detail on methods. […] In the case of SIE/NT, donor karyoplasts (fibroblasts) were injected immediately prior to or immediately after activation. In vitro embryo development was evaluated over a period of 7 days.

[2] = system: B6D2F1 and CF-1 mouse oocytes
Description: (§1) Hybrid B6D2F1 (C57BL/6×DBA/2) and outbred CF-1 female mice, 8-12 weeks of age, were used as oocyte donors. […] Females were induced to superovulate by intraperitoneal injection of 5 1U of pregnant mare serum gonadotropin (PMSG, Calbiochem) followed 48 h later by 5 1U of human chorionic gonadotropin (hCG, Calbiochem). MII oocytes were collected from oviducts 16-17 h after hCG administration in Hepes-buffered KSOM (H-KSOM, Specialty Media). Cumulus cells were dispersed by incubation in 150 units/ml of bovine testicular hyaluronidase (Sigma) in H-KSOM at 37° C. for 5 min. Cumulus-free oocytes were then washed three times in fresh H-KSOM and immediately activated.
(§2) Oocytes were parthenogenetically activated by a 5-min exposure to freshly prepared 7% (v/v) ethanol in H-KSOM at 37° C. and then washed twice in H-KSOM. Removal of oocytes from ethanol was considered as time zero post-activation (p.a.). To monitor meiotic progression, activated control oocytes (EtOH groups) were cultured for up to 2 h and 15 min and fixed at 30 min intervals, starting 45 min p.a. Culture of activated oocytes was at 37° C. under 5% COZ in air in KSOM medium containing 1 mg/ml BSA and amino acids (16; Specialty Media).
(§3) Fixed oocytes were stored until processing at 4 C. in a PBS blocking solution containing 1% BSA, 0.2% powdered milk, 2% normal goat serum, 0.1 M glycine, 0.2% sodium azide and 0.01% Triton X-100.
(§4) A triple labeling protocol was used for the detection of microtubules, microfilaments and chromatin by fluorescence microscopy. […]
(§5) Labeled oocytes were examined using a Zeiss IM-35 inverted epi-fluorescence microscope fitted with filters selective for Hoechst, fluorescene and Texas Red and a 50 W mercury lamp. […]
(§6) Data were analyzed by x^2 test or Fisher's exact test. […]

[3] = system: B6D2F1 and CF-1 mouse oocytes; test: Complete second polar body extrusion in ethanol-activated mouse oocytes treated with demecolcine; format: cell-based; settings: demecolcine for only 15, 30 or 45 min, compared with continuous exposure; preliminary, unpublished
Description: as §1
Oocytes were parthenogenetically activated by a 5-min exposure to freshly prepared 7% (v/v) ethanol in H-KSOM at 37° C. and then washed twice in H-KSOM. Removal of oocytes from ethanol was considered as time zero post-activation (p.a.). […]
as §4, §5, §6

[4] = system: B6D2F1 and CF-1 mouse oocytes; remark: listed apart in the source
Description: as §1, §2, §3
A triple labeling protocol was used for the detection of microtubules, microfilaments and chromatin by fluorescence microscopy. Oocytes were first incubated for 1 h at 37° C. in a mixture of mouse monoclonal anti a-tubulin and anti (3-tubulin antibodies (Sigma) at a 1:1000 final dilution. After several washes in 0.1% polyvinylpyrrolidone (PVP)/PBS at room temperature, oocytes were incubated at 37° C. in PBS blocking solution for 30 min and then in a 1:150 dilution of a donkey antimouse fluorescein-conjugated IgG (Jackson ImmunoResearch) for 45 min at 37° C. Oocytes were washed again several times in 0.1% PVP/PBS and incubated at 37° C. for 30 min in 10 units/ml of Texas Red-conjugated phalloidin (Molecular Probes) to stain actin filaments. Finally, after extensive washing in 0.1% PVP/PBS, oocytes were incubated at room temperature for 15 min in 10 μLg/ml Hoechst 33258 (Molecular Probes) and mounted in 50% glycerol/PBS containing 25 mg/ml sodium azide.
Labeled oocytes were examined using a Zeiss IM-35 inverted epi-fluorescence microscope fitted with filters selective for Hoechst, fluorescene and Texas Red and a 50 W mercury lamp. Selected images were acquired using a Photometrics Cool Snap CCD camera (Roper Scientific Inc., Trenton, N.J.) running on Metamorph software (version 5.0, Universal Imaging Corp., Downington, Pa.).
Data were analyzed by x^2 test or Fisher's exact test. A probability value of P<0.05 was considered to be statistically significant.
In vivo ovulated mouse oocytes (B6D2F1, n-959; CF 1, n=999) and in vitro matured goat oocytes (n-163) were denuded activated (7% ethanol) and incubated for up to 3.5 hr in KSOM.

bovine oocytes = test: Induced enucleation (IE) of activated bovine oocytes by demecolcine; format: cell-based
[5] = IE group: fibroblast nuclei injected into IE cytoplasts 1.5-3 hpa
[6] = Induced Enucleation (IE): demecolcine 0.4 μg/ml 1.5-5 h p.a., nuclei injected 1.5-3 h p.a.
[7] = Simultaneous IE-NT (SIE/NT): karyoplasts injected immediately prior to or after activation
[8] = parthenogenetically activated and DM treated oocytes (control group)

Description for goat oocytes: This study was designed to characterize the kinetics and progressive phenotypes observed during induced enucleation (IE) of activated mouse and goat oocytes. In vivo ovulated mouse oocytes (B6D2F1, n-959; CF 1, n=999) and in vitro matured goat oocytes (n-163) were denuded activated (7% ethanol) and incubated for up to 3.5 hr in KSOM. […] At selected time points oocytes (n=11.50) were fixed/extracted and processed for immunofluorescence microscopy to document activation and meiotic progression based on spindle (microtubules), chromatin (H33258) and polar body (PB. microfilaments) phenotypes.

CN[C@H]1CCc2cc(OC)c(OC)c(OC)c2-c2ccc(OC)c(=O)cc21 [demecolcine] was tested, and the cleavage rate [1, 5] was 48%, the morula/blastocyst rate [1, 5] was 27% and the Blastocyst [1, 6] was 16%. It also gave a Cleavage [1, 6] of 49%, a Fragmented [1, 6] of 20% and a Morula [1, 6] of 17%. For the same molecule, the Blastocyst [1, 7] was 25%, the Cleavage [1, 7] was 54% and the Fragmented [1, 7] was 18%. For the same molecule, the cleavage rate [1, 8] was 49%, the morula/blastocyst rate [1, 8] was 30% and the “time required for induced enucleation” value (goat oocytes) was “about 5 hours”. The induced enucleation rate (goat oocytes; 5 hours) was “greater than 80%”, the “oocytes showing complete spindle rotation” value ([2]; CF-1 and B6D2F1 treated oocytes, all treatments, 135 min p.a.) was 0-9.6% and the “oocytes in which spindle rotation is completed” value ([2]; demecolcine treated oocytes, both strains) was “less than 10%”. For the same molecule, the “time after onset of treatment at which effect on the meiotic spindle was evident” value ([2]; smaller spindles, lower MT density than untreated activated oocytes) was 15 min, the “rates of second PB extrusion after short exposure” value [3] was “slightly higher” and the “enucleation rates of oocytes that completed second PB extrusion” value ([4]; CF-1, four treatments (onset 0-15 min p.a.), all time-points combined) was ~80%. For the same molecule, the “rates of oocyte enucleation after short exposure” value ([4]; demecolcine for only 15, 30 or 45 min, compared with continuous exposure, preliminary, unpublished) was “reduced”, the “maximum IE rates” value ([4]; mouse oocytes exposed to demecolcine immediately after activation, strain-dependent) was 23-100% and the “time required for induced enucleation” value ([4]; murine oocytes) was “about 1.5 hours”. For the same molecule, the induced enucleation rate ([4]; murine oocytes, about 1.5 hours) was “greater than 50%”, the “maximum rate of IE” value (bovine oocytes; DM 0.4 μg/ml between 1.5 and 5hpa, at 5hpa) was 91% and the IE rates (bovine oocytes; DM 0.4 μg/ml, varied onset and duration, at 5hpa) was 60-91%. For the same molecule, the induced enucleation rate (bovine oocytes; bovine oocytes, about 5 hours post-activation) was “greater than 80%” and the “time required for induced enucleation” value (bovine oocytes; bovine oocytes, post-activation) was “about 5 hours”.
